Assay results reported in ChEMBL document CHEMBL1201862, “PubChem BioAssay data set” (2004).
Activity calls are given as the source filed them.

How the values were obtained:
[1] = biological target: Heat shock protein HSP 90-alpha (Homo sapiens, UniProt P07900); assay type: functional, organism-based
[2] = biological target: Beta-galactosidase (Escherichia coli, UniProt Q8VNN2); experiment: Dose response counterscreen for EBI2 assay utilizing the enzyme, b-galactosidase.; assay type: functional
Chain of Beta-galactosidase (Q8VNN2 whole entry): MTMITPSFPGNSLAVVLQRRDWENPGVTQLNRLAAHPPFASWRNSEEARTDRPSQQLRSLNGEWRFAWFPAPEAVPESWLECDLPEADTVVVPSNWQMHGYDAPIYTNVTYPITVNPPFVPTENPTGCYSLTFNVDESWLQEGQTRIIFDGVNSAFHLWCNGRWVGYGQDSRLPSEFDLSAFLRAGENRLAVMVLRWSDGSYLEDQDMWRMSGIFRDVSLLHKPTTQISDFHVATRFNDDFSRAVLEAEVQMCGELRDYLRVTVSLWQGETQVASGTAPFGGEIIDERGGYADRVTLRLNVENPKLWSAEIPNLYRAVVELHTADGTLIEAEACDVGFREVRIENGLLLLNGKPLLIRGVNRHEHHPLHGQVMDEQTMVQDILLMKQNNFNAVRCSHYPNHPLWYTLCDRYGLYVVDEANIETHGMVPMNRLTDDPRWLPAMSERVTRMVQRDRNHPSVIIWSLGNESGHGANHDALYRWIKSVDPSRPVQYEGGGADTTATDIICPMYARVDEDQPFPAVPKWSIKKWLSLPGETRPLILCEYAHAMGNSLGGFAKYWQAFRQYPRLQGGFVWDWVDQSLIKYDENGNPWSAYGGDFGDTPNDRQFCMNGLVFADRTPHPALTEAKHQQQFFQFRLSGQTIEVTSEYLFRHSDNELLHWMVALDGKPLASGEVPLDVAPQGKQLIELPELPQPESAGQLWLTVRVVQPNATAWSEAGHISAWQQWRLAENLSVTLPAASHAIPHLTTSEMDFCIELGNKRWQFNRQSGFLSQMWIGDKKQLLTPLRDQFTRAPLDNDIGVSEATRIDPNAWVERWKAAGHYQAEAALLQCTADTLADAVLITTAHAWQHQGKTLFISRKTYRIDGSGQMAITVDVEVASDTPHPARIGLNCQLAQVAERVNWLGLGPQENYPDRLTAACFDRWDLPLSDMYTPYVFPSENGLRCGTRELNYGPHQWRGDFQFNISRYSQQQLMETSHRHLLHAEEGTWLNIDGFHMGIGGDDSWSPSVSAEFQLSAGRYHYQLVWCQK

[3] = Shn3 3'UTR reporter inhibitors, dose response, cell-based, Clone20 osteoblasts, firefly luciferase, cherry-picked (AID 624132); assay type: functional;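 also: firefly luciferase luminescence from reporter carrying the Shn3 3'UTR in osteoblasts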
[4] = HepG2 cell cytotoxicity, dose response, cytotoxicity control for Shn3 inhibitor project, CellTiter-Glo, cherry-picked (AID 624134); assay type: functional, cell-based
[5] = inhibitors of firefly luciferase expression or activity, dose response, H4 neuroglioma cells, luminescence (AID 1990); assay type: functional, cell-based
[6] = biological target: Nonstructural protein 1 (Influenza A virus, UniProt Q194T2); assay type: functional, Influenza A virus (A/California/07/2009(H1N1))
Chain of Nonstructural protein 1 (Q194T2 whole entry): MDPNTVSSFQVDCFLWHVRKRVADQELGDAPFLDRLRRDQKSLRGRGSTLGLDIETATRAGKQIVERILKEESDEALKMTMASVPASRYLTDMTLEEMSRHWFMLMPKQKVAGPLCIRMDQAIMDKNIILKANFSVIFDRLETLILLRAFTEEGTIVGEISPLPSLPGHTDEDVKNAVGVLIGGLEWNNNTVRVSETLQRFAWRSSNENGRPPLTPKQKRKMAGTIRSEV

[7] = Luminescence Cell-Based Dose Response HTS to Identify Inhibitors of 5'UTR Stem-Loop Driven Prion Protein mRNA Translation in H4 Neuroglioblastoma Cells. [Related pubchem assays: 1827 (Project Summary), 1813 (Primary HTS)]; assay type: functional
[8] = control 3'UTR Renilla luciferase suppression, dose response, counter-screen for Shn3 inhibitor project, cell-based, Clone20-Shn3RL, cherry-picked (AID 624133); assay type: functional
[9] = test system: INS1; experiment: beta cell apoptosis inhibitors, cytokine rescue, dose response, luminescence, retest (AID 449756); assay type: functional, cell-based; settings: Rattus norvegicus;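 also: cell death triggered by IL-1 beta plus TNF-alpha plus IFN-gamma mixture; protective hits raise ATP signal compared with cytokine alone wells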
[10] = inhibitors of SNCA 5'UTR-driven reporter translation, confirmation, H4 neuroglioma cells, luminescence (AID 1988); assay type: functional, cell-based
[11] = NIH-3T3 fibroblast cytotoxicity, dose response, cytotoxicity control, cell-based, fluorescence, Alamar Blue, secondary assay (AID 2327); assay type: functional;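 also: NIH-3T3 mouse fibroblasts cultured with fluconazole at 8 µg/mL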
[12] = C. albicans growth with fluconazole, confirmation, fluorescence, retest (AID 2467); assay type: functional, cell-based
[13] = inhibitors of HIV Env-driven cell fusion, dose response, cherry-pick (AID 652057); assay type: functional, cell-based
[14] = ZM109 Env clade C HIV-1 fusion inhibitors, dose response, HeLa effector, CEM target cells, luciferase, cherry-pick (AID 652058); assay type: functional, cell-based
[15] = inhibitors of clade B AD8 Env fusion, dose response, cell-based, cherry-pick (AID 652062); assay type: functional;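 also: luciferase signal from cell-cell fusion driven by HIV-1 clade B AD8 Env; potency is for inhibitors of fusion seen as a drop in luminescence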
[16] = biological target: T1, Ubiquitin-conjugating enzyme E2 N (Homo sapiens, UniProt P61088); assay type: functional;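 also: Dose-response confirmation in a TR-FRET assay detecting UBC13-driven polyubiquitin chain formation, inhibition measured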
T1 sequence (P61088 whole entry): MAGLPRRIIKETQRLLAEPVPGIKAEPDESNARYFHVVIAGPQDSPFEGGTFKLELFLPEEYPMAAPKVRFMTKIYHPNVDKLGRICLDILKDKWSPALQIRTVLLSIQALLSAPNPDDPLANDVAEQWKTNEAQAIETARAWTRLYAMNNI

[17] = biological target: T2, Calpain-2 catalytic subunit (Sus scrofa, UniProt P43367); experiment: pig calpain II inhibitor potency, dose response, biochemical, fluorogenic peptide substrate (AID 1420); assay type: functional
T2 sequence (P43367 whole entry): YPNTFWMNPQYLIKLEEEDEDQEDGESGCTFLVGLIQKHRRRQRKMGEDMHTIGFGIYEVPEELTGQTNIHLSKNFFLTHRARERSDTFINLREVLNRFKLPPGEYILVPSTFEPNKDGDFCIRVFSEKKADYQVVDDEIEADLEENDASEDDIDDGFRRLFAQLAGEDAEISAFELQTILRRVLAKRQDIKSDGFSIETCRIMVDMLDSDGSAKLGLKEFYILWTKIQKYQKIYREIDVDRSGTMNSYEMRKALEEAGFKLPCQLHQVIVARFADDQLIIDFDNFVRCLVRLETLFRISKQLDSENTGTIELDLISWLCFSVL

[18] = Luminescence Cell-Based Dose Retest to Confirm Inhibitors of Cancer Stem Cells. [Related pubchem assays (depositor defined):AID2717, AID2721]; assay type: functional; settings: Homo sapiens
[19] = cells; assay type: functional, cell-based
[20] = biological target: T3, Protein RecA (Mycobacterium tuberculosis, UniProt P9WHJ3); experiment: Fluorescence Cell-Free Homogeneous Dose Retest to Identify Inhibitors of RecA-Intein Splicing Activity. [Related pubchem assays (depositor defined):AID2097, AID2223, AID489010, AID492950]; assay type: functional
T3 sequence (P9WHJ3 whole entry): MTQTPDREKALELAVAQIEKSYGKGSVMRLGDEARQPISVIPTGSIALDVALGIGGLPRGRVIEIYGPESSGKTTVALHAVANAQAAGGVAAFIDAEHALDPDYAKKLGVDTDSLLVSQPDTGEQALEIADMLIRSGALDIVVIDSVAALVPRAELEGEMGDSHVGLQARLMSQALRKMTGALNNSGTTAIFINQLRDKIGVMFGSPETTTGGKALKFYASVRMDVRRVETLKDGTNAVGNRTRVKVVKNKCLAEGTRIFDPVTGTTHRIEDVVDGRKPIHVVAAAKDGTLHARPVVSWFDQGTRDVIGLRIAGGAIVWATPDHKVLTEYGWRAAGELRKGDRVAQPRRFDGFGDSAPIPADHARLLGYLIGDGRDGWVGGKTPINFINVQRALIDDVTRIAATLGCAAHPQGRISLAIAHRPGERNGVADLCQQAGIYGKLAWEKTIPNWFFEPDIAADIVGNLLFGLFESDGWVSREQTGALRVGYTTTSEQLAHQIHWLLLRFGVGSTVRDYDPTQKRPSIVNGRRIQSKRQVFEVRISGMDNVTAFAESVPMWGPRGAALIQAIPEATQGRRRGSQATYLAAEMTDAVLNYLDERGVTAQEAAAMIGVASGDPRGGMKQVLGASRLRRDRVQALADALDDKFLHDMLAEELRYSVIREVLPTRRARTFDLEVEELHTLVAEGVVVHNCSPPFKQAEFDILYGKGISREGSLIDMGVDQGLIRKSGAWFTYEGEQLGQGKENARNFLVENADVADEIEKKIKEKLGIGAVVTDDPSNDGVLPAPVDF

[21] = cytotoxicity toward NIH3T3 fibroblasts, dose response, counter-screen, cell-based, ATP luminescence, mouse fibroblasts (AID 2010); assay type: functional;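 also: cells exposed to compound for about 90 hours before reading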
[22] = inhibitors of intracellular T. cruzi replication, confirmation, NIH3T3 host cells, beta-gal luminescence (AID 2044); assay type: functional, cell-based;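 also: intracellular parasites grown in NIH/3T3 mouse fibroblasts as host cells; luminescent beta-galactosidase reporter signal from transgenic T. cruzi replicating inside host cells; inhibitors lower the luminescence signal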
[23] = biological target: T4, Replicative DNA helicase DnaB (Mycobacterium tuberculosis, UniProt P9WMR3); experiment: DnaB intein splicing inhibitors, dose response, biochemical, cell-free fluorescence (AID 449749); assay type: functional
T4 sequence (P9WMR3 whole entry): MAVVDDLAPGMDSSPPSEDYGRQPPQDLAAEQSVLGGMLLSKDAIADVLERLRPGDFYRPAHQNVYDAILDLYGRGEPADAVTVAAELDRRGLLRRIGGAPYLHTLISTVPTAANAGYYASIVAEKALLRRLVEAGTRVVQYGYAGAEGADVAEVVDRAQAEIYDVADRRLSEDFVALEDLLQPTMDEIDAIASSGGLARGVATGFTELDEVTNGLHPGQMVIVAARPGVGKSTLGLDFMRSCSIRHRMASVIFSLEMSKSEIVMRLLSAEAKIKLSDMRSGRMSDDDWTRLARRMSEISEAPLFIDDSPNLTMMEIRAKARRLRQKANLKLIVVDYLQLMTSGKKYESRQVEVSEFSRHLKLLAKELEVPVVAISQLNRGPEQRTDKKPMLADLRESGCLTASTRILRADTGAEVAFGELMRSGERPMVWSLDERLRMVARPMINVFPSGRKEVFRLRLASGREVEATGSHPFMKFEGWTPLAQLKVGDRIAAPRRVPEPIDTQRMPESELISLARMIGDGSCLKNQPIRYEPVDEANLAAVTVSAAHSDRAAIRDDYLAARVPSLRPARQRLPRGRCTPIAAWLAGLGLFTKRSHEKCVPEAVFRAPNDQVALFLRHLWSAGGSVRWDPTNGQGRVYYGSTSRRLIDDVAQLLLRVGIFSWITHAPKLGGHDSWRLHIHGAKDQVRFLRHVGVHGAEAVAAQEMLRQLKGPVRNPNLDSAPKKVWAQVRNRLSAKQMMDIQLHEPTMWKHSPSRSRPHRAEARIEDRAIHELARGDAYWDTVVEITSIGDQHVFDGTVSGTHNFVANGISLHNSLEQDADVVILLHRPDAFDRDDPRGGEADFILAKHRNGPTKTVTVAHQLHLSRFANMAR

[24] = cells; assay type: functional, cell-based; remark: listed apart in the source
[25] = biological target: Paired box protein Pax-8 (Homo sapiens, UniProt Q06710); experiment: inhibitors of PAX8-driven TPO luciferase reporter, dose response, RMG-I cells, cherry-pick (AID 687027); assay type: functional, cell-based;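 also: luciferase reporter driven by Pax8 target thyroperoxidase promoter measured by SteadyGlo luminescence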
Chain of Paired box protein Pax-8 (Q06710 whole entry): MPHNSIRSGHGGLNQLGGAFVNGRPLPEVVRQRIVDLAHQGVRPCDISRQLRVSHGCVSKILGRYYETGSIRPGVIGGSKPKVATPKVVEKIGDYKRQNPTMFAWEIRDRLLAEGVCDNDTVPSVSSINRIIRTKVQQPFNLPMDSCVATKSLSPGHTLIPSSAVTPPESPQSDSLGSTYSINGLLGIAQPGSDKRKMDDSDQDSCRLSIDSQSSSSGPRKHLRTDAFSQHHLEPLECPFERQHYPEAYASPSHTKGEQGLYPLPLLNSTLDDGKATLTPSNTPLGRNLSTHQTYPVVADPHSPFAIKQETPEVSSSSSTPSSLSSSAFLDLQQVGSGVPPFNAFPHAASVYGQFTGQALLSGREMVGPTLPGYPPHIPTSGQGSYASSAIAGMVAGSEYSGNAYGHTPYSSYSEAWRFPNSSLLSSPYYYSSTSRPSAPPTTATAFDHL

NC(=O)C1CCN(C2CC(=O)N(c3ccc(F)c(Cl)c3)C2=O)CC1 (configuration not stated)
AC50 [1]: 3.04 µM (active)

Cc1ccc2oc(=O)c3cnn(CC(=O)N(CCC(C)C)Cc4ccco4)c3c2c1
IC50 [2]: > 80 µM (inactive)

OCc1ccc(O)c2ncccc12
AC50 [3]: 1.66 µM (active) | AC50 [4]: 5.94 µM (active) | EC50 [5]: 0.712 µM (active) | IC50 [6]: 10.5 µM (active) | EC50 [7]: 2.95 µM (active) | AC50 [8]: 2.24 µM (active) | AC50 [9]: 3.37 µM (active) | EC50 [10]: 1.2 µM (active) | EC50 [11]: > 150 µM (inactive) | EC50 [12]: > 38 µM (not active)

O=C(/C=C/c1ccccc1)N1CCN(c2c(Cl)cccc2[N+](=O)[O-])CC1
IC50 [2]: > 80 µM (inactive)

COc1ccc(-c2cc(C3CCN(c4cc(Cl)nc(N)n4)CC3)[nH]n2)cc1
AC50 [13]: 42.9 µM (active) | AC50 [14]: 0.295 µM (active) | AC50 [15]: 26.4 µM (active) | IC50 [16]: > 20 µM (inactive)

CCCCCCSc1nnc(-c2cnn(-c3ccccc3)c2-n2cccc2)n1C
IC50 [17]: 7.59 µM (not active)

COc1ccc2c(n1)Sc1nc3ccccc3nc1N2
AC50 [1]: 1.96 µM (active)

O=C(COc1ccc(Br)cc1)N1CCN(S(=O)(=O)/C=C/c2ccccc2)CC1
IC50 [2]: > 80 µM (inactive)

CCN(CC)C1CC(=O)N(c2cccc(Cl)c2)C1=O (configuration not stated)
AC50 [1]: 2.21 µM (active)

CCCC(=O)n1nc(NCc2ccc(OC)cc2)nc1NCc1ccc(OC)cc1
IC50 [17]: < 0.4 µM (not active)

CC(C)=CCc1c(O)ccc(C2COc3c(CC=C(C)C)c(O)cc(O)c3C2=O)c1O (configuration not stated)
AC50 [1]: 15.9 µM (active)

CNC(=S)N1N=C(c2ccc(OC)cc2)CC1c1ccc(N(C)C)cc1 (configuration not stated)
IC50 [2]: > 80 µM (inactive)

Cc1cccc(N2CCN(C(=O)c3cc4c(=O)[nH]c5ccccc5c4n3C)CC2)c1C
IC50 [2]: > 80 µM (inactive)

CC1CC1C(=O)OCC(=O)Nc1ccccc1Oc1ccccc1 (configuration not stated)
IC50 [17]: 33.3 µM (not active)

CCOC(=O)C1CCN(C(=O)/C=C/c2ccc(OC)cc2)CC1
IC50 [2]: > 80 µM (inactive)

O=C(Cn1nc(-c2ccc3c(c2)OCCO3)ccc1=O)Nc1cccc(NC(=O)c2ccccn2)c1
IC50 [17]: > 50 µM (not active)

COc1ccc(NC(=O)c2c(N)no[n+]2[O-])cc1
AC50 [18]: 0.754 µM (active) | EC50 [11]: 1.6 µM (active) | EC50 [12]: 2.19 µM (active)

O=S(=O)(Cc1ccc(Cl)cc1)N1CCN(Cc2ccccc2)CC1
EC50 [11]: > 160 µM (inactive) | EC50 [12]: > 38 µM (not active)

COCCNC(=O)CCCn1c(=O)c2cc(OC)c(OC)cc2n(CC(=O)NCCC2=CCCCC2)c1=O
EC50 [11]: > 160 µM (inactive) | EC50 [12]: 3.16 µM (active)

CC1CCN(c2nc3ccccc3n2CC(=O)c2ccccc2)CC1
IC50 [17]: > 50 µM (not active)

COc1ccccc1N1CCN(C(=O)c2cc3c(C)nc4ccccc4c3o2)CC1
IC50 [2]: > 80 µM (inactive)

Cc1cccc(NC(=O)NCc2ccc3[nH]c(C)cc3c2)c1
IC50 [17]: 7.26 µM (not active)

O=C(COc1ccc(Cl)cc1)N1CCN(C(=O)c2cccc(F)c2)CC1
IC50 [2]: > 80 µM (inactive)

Cc1ccc(S(=O)(=O)N(C(=O)c2ccncc2)c2ccc(OC(=O)c3ccncc3)cc2)cc1
AC50 [1]: 1.23 µM (active)

O=c1c2c3c(sc2ncn1/N=C/c1ccc([N+](=O)[O-])o1)CCCC3
AC50 [18]: 4.45 µM (active) | AC50 [1]: 0.637 µM (active)

Cc1nc2ccccc2nc1N/N=C/c1ccc(O)cc1O
EC50 [19]: 12.1 µM (active) | EC50 [20]: > 380 µM (inconclusive) | IC50 [6]: 14.1 µM (active) | AC50 [9]: 0.882 µM (active) | EC50 [21]: 8.31 µM (active) | EC50 [22]: 2.05 µM (active) | AC50 [23]: > 380 µM (inactive) | EC50 [24]: > 350 µM (not active)

COc1ccc(OC)c(NC(=O)C(=O)/C=C(\O)c2cc(OC)ccc2OC)c1
EC50 [11]: 29.9 µM (inconclusive) | EC50 [12]: > 38 µM (not active)

CC(=NNC(=S)N1CCC1)c1ccccn1
AC50 [25]: < 0.26 µM (active) | IC50 [6]: 2.09 µM (active) | AC50 [1]: 1.58 µM (active)

N#C/C(=C/c1ccc(O)cc1)C(=O)NCc1ccc(Cl)cc1
AC50 [1]: 3.08 µM (active)

O=C1CCN(Cc2ccccc2)C=C1c1ccc(Br)cc1
IC50 [2]: > 80 µM (inactive)
